Test results as given in the supplement of paper PMC3974653.
Where a name gives a salt, the structure may show the parent alone.

Columns and labels:
[1] = test system: MTT (mouse pheochromocytoma); assay: IC50 of cell viability (ATP content); AC50 where efficacy is positive; conditions: (24 or 48 h)
[2] = test system: MTT (mouse pheochromocytoma); assay: efficacy (maximal response) relative to doxorubicin = -100% and DMSO = 0%; higher = less inhibition of viability; conditions: (24 or 48 h)

IC50 of cell viability [1] | SMILES | efficacy [2]
3.6 µM | CCOc1ccc(Cc2nccc3cc(OCC)c(OCC)cc23)cc1OCC [Ethaverine hydrochloride] | -60%
13.3 µM | O=Cc1ccccc1C=O [PHTHARAL] | -54.4%
10.6 µM | C[n+]1c2cc(N)ccc2cc2ccc(N)cc21.[Cl-] [ACRIFLAVINIUM HYDROCHLORIDE] | -50.3%
8.41 µM | C=C1C(=O)O[C@@H]2[C@@H]1CC/C(C)=C\CC[C@@]1(C)O[C@H]21 [Parthenolide] | -104%
0.422 µM | CC[C@@]1(O)C(=O)OC/C2=C1/C=C/3N(CC4=CC5=C(C=CC=C5[N+]([O-])=O)N=C34)C2=O [RUBITECAN] | -54.5%
11.4 µM | Cc1cc(N)c2ccccc2[n+]1CCCCCCCCCC[n+]1c(C)cc(N)c2ccccc21 [Dequalinium dichloride] | -81.5%
18.8 µM | COc1cc(NCCCC(C)N)c2ncccc2c1 (stereo not given) [QUINOCIDUM] | -93.9%
6.68 µM | C[N+]1(CC2COC(c3ccccc3)(C3CCCCC3)O2)CCCCC1 (stereo not given) [OXAPIUM IODIDE] | -60.2%
0.0668 µM | Nc1ncn(C2C[C@H](O)[C@@H](CO)O2)c(=O)n1 (stereo not given in full) | -51.6%
8.41 µM | CCc1nc(N)nc(N)c1-c1ccc(Cl)cc1 [Pyrimethamine] | -35%
26.6 µM | CC[NH+](CC)CCCN(c1ccccc1)C1Cc2ccccc2C1 [APRINDINE HYDROCHLORIDE] | -107%
1.68 µM | CCN(CC)C1=CC=C(C=C1)C(\C2=CC=CC=C2)=C3\C=C/C(/C=C3)=[N+](\CC)CC [Brilliant Green] | -108%
0.64 µM | Cc1cc(/C=C\c2ccc3cc(N(C)C)ccc3[n+]2C)c(C)n1-c1ccccc1.Cc1cc(/C=C\c2ccc3cc(N(C)C)ccc3[n+]2C)c(C)n1-c1ccccc1.O=C([O-])c1cc2ccccc2c(Cc2c(O)c(C(=O)[O-])cc3ccccc23)c1O [Pyrvinium pamoate] | -33.3%
9.44 µM | c1ccc2[nH]c(-c3cscn3)nc2c1 [Thiabendazole] | -40%
4.53 µM | CC(C)NC(=N)NC(=N)Nc1ccc(Cl)cc1 [Proguanil hydrochloride] | -59%
18.8 µM | CCN1/C(=C/C=C/C=C/c2sc3ccccc3[n+]2CC)Sc2ccccc21 [DITHIAZANINE IODIDE] | -109%
1.33 µM | NC/1=N/C(=O)N(/C=N1)[C@@H]2O[C@H](CO)[C@@H](O)[C@H]2O [Azacitidine] | -71.2%
23.7 µM | OCCN1CCN(CC/C=C2/c3ccccc3Sc3ccc(C(F)(F)F)cc32)CC1 [cis-(Z)-FLUPENTHIXOL] | -85.6%
2.11 µM | CC[C@@]1(O)C[C@H](O[C@H]2C[C@@H](N(C)C)[C@@H](O[C@H]3C[C@@H](O)[C@@H](O[C@H]4CCC(=O)[C@@H](C)O4)[C@@H](C)O3)[C@@H](C)O2)c2c(cc3c(c2O)C(=O)c2c(O)cccc2C3=O)[C@H]1C(=O)OC [ACLARUBICIN HYDROCHLORIDE] | -41.5%

SMILES | IC50 of cell viability [1] | efficacy [2]
CC(=O)[O][Hg][c]1ccccc1 [PHENYLMERCURIC ACETATE] | 2.37 µM | -93.4%
